Reference: patent US11267814B2, “Compounds for bone growth” (OsteoQC Inc., priority 2013, dated 2022)

Experiments:
sclerostin = target: T1, sclerostin (Homo sapiens, UniProt Q9BQB4); assay: Modulation of sclerostin/Wnt activity (sclerostin inhibition assay): restoring Wnt3a signaling in the presence of sclerostin; format: cell-based; details: for Sclerostin Inhibition Assay; improvement over sclerostin alone.: IC100 class, Wnt3a signaling in human embryonic cells in presence of sclerostin
T1 construct: host or cells: human embryonic cells (reporter cells)
T1 sequence (Q9BQB4 24-213): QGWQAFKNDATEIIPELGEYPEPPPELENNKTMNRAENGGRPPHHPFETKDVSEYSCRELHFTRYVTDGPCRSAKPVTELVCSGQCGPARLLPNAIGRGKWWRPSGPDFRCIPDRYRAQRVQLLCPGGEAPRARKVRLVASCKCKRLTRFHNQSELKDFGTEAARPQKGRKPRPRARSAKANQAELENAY

MC3T3 osteoblast cells = assay: Osteocalcin (OCN) secretion, bone formation marker, ELISA; format: cell-based, mouse; details: for IC100: Mus musculus
Description: Bone formation can also be assayed in vitro or in vivo using a serum marker for bone formation, osteocalcin (OCN), available from Biomedical Tecnhnologies, Inc. (Stoughton, Mass.). Following the manufacturer's protocol for the mouse osteocalcin EIA kit (described at the website www.btiinc.com/page/cata2.html#mouse_osteocalcin), bone formation in MC3T3 osteoblast cells was assayed by measuring the concentration of OCN.

[1] = tested on: MC3T3-E1 (mouse calvarial) osteoblast cells; assay: Rescue of sclerostin inhibition of mineralization (total calcium); format: cell-based; details: calcium concentration; for IC100: Mus musculus, MC3T3-E1, read-out: Sclerostin Inhibition of Mineralization, improvement over sclerostin alone.
Description: Mineralization (crystalline calcium phosphate formation) represents an in vitro model of bone formation. […] Following the protocol described in Li et al., Compounds were assayed for their ability to rescue the inhibition of mineralization by sclerostin in MC3T3 osteoblast cells.

[2] = IC100 class, OCN secreted from MC3T3 osteoblast cells treated with sclerostin
[3] = IC100 class, MC3T3 osteoblast cells treated with sclerostin
[4] = MC3T3 osteoblast cells, result in words

Question: Which “Sclerostin Inhibition Assay; improvement over sclerostin alone.” value (sclerostin) does the source give for `COc1ccc2c3cc(F)nc(C)c3n(CCN3CCCCC3)c2c1` [Example 39, 3-fluoro-7-methoxy-1-methyl-9-(2-(piperidin-1-yl)ethyl)-9H-pyrido[3,4-b]indole] here?
Answer: ++ (++ indicates an IC100 < 10 μM)

Question: What about the IC100 (MC3T3 osteoblast cells; [2]) of the same molecule?
Answer: < 10 µM

Question: What about the IC100 [1, 3] of the same molecule?
Answer: < 10 µM

Question: How did the “Sclerostin Inhibition Assay; improvement over sclerostin alone.” value (sclerostin) turn out when `COc1ccc2c3ccnc(C(F)(F)F)c3n(CCN3CCN(C(=O)OC(C)(C)C)CC3)c2c1` [Example 24, t-butyl 4-(2-(7-methoxy-1-(trifluoromethyl)-9H-pyrido[3,4-b]indol-9-yl)ethyl)piperazine-1-carboxylate] was run?
Answer: ++ (++ indicates an IC100 < 10 μM)

Question: And the IC100 (MC3T3 osteoblast cells; [2])?
Answer: < 10 µM

Question: What about the IC100 [1, 3] of the same molecule?
Answer: < 10 µM

Question: With `COc1ccc2c(c1)[nH]c1c(C)cncc12` [Example 41, 7-methoxy-4-methyl-5H-pyrido[4,3-b]indole] as the molecule, how does the “Sclerostin Inhibition Assay; improvement over sclerostin alone.” value (sclerostin) read?
Answer: + (+ indicates an IC100 > 10 μM)

Question: What about the IC100 (MC3T3 osteoblast cells; [2]) of the same molecule?
Answer: > 10 µM

Question: And the IC100 [1, 3]?
Answer: > 10 µM

Question: With `Oc1ccc2c(c1)[nH]c1c(C(F)(F)F)nccc12` [Example 23, 1-(trifluoromethyl)-9H-pyrido[3,4-b]indol-7-ol] as the molecule, how does the “Sclerostin Inhibition Assay; improvement over sclerostin alone.” value (sclerostin) read?
Answer: ++ (++ indicates an IC100 < 10 μM)

Question: And the IC100 (MC3T3 osteoblast cells; [2])?
Answer: < 10 µM

Question: And the IC100 [1, 3]?
Answer: < 10 µM

Question: With `CCN(CC)CCCn1c2cc(OC)ccc2c2ccnc(C)c21` [Example 6, N,N-diethyl-3-(7-methoxy-1-methyl-9H-pyrido[3,4-b]indol-9-yl)propan-1-amine] as the molecule, how does the “Sclerostin Inhibition Assay; improvement over sclerostin alone.” value (sclerostin) read?
Answer: ++ (++ indicates an IC100 < 10 μM)

Question: What about the IC100 (MC3T3 osteoblast cells; [2]) of the same molecule?
Answer: < 10 µM

Question: What about the IC100 [1, 3] of the same molecule?
Answer: < 10 µM

Question: How did the “Sclerostin Inhibition Assay; improvement over sclerostin alone.” value (sclerostin) turn out when `Cc1nccc2c1[nH]c1cc(OCC3CC3)ccc12` [Example 46, 7-(cyclopropylmethoxy)-1-methyl-9H-pyrido[3,4-b]indole] was run?
Answer: ++ (++ indicates an IC100 < 10 μM)

Question: What about the IC100 (MC3T3 osteoblast cells; [2]) of the same molecule?
Answer: < 10 µM

Question: And the IC100 [1, 3]?
Answer: < 10 µM

Question: With `COc1ccc2c3ccnc(C)c3n(CCN3CCNCC3)c2c1` [Example 16, 7-methoxy-1-methyl-9-(2-(piperazin-1-yl)ethyl)-9H-pyrido[3,4-b]indole] as the molecule, how does the “Sclerostin Inhibition Assay; improvement over sclerostin alone.” value (sclerostin) read?
Answer: ++ (++ indicates an IC100 < 10 μM)

Question: What about the IC100 (MC3T3 osteoblast cells; [2]) of the same molecule?
Answer: < 10 µM

Question: What about the IC100 [1, 3] of the same molecule?
Answer: < 10 µM

Question: How did the “Sclerostin Inhibition Assay; improvement over sclerostin alone.” value (sclerostin) turn out when `COc1ccc2c3ccnc(C)c3n(CCN3CCN(C(=O)OC(C)(C)C)CC3)c2c1` [Example 14, t-butyl 4-(2-(7-methoxy-1-methyl-9H-pyrido[3,4-b]indol-9-yl)ethyl) piperazine-1-carboxylate] was run?
Answer: ++ (++ indicates an IC100 < 10 μM)

Question: What about the IC100 (MC3T3 osteoblast cells; [2]) of the same molecule?
Answer: < 10 µM

Question: What about the IC100 [1, 3] of the same molecule?
Answer: < 10 µM

Question: What does the source list for `COc1ccc2c3ccnc(C(F)(F)F)c3n(CC(C)N3CCOCC3)c2c1` (stereo not drawn) [Example 28, 4-(1-(7-methoxy-1-(trifluoromethyl)-9H-pyrido[3,4-b]indol-9-yl)propan-2-yl)morpholine]?
Answer: Sclerostin Inhibition Assay; improvement over sclerostin alone. (sclerostin): ++ (++ indicates an IC100 < 10 μM); IC100 (MC3T3 osteoblast cells; [2]): < 10 µM; IC100 [1, 3]: < 10 µM

Question: For `COc1ccc2c3ccnc(C(F)(F)F)c3n(CCNCCO)c2c1` [Example 34, 2-((2-(7-methoxy-1-(trifluoromethyl)-9H-pyrido[3,4-b]indol-9-yl)ethyl)amino)ethanol], which “Sclerostin Inhibition Assay; improvement over sclerostin alone.” value (sclerostin) is on record?
Answer: ++ (++ indicates an IC100 < 10 μM)

Question: What about the IC100 (MC3T3 osteoblast cells; [2]) of the same molecule?
Answer: < 10 µM

Question: And the IC100 [1, 3]?
Answer: < 10 µM

Question: For `COc1ccc2c3ccnc(C)c3n(CCN(C)C)c2c1` [Example 7, 2-(7-methoxy-1-methyl-9H-pyrido[3,4-b]indol-9-yl)-N,N-dimethyl ethanamine], which “Sclerostin Inhibition Assay; improvement over sclerostin alone.” value (sclerostin) is on record?
Answer: ++ (++ indicates an IC100 < 10 μM)

Question: And the IC100 (MC3T3 osteoblast cells; [2])?
Answer: < 10 µM

Question: What about the IC100 [1, 3] of the same molecule?
Answer: < 10 µM

Question: What does the source list for `Cc1nccc2c1[nH]c1cc(Cl)ccc12` [Example 44, 7-chloro-1-methyl-9H-pyrido[3,4-b]indole]?
Answer: Sclerostin Inhibition Assay; improvement over sclerostin alone. (sclerostin): ++ (++ indicates an IC100 < 10 μM); IC100 (MC3T3 osteoblast cells; [2]): < 10 µM; IC100 [1, 3]: < 10 µM

Question: With `CC(Cn1c2ccccc2c2ccccc21)N(C)C` (stereo not drawn) [Example 2, 1-(9H-carbazol-9-yl)-N,N-dimethylpropan-2-amine] as the molecule, how does the “Sclerostin Inhibition Assay; improvement over sclerostin alone.” value (sclerostin) read?
Answer: + (+ indicates an IC100 > 10 μM)

Question: What about the IC100 (MC3T3 osteoblast cells; [2]) of the same molecule?
Answer: > 10 µM

Question: What about the IC100 [1, 3] of the same molecule?
Answer: > 10 µM

Question: With `COc1ccc2c(c1)[nH]c1c(C)nc(F)cc12` [Example 38, 3-fluoro-7-methoxy-1-methyl-9H-pyrido[3,4-b]indole] as the molecule, how does the “Sclerostin Inhibition Assay; improvement over sclerostin alone.” value (sclerostin) read?
Answer: ++ (++ indicates an IC100 < 10 μM)

Question: And the IC100 (MC3T3 osteoblast cells; [2])?
Answer: < 10 µM

Question: And the IC100 [1, 3]?
Answer: < 10 µM

Question: For `Cc1nccc2c1[nH]c1cc(OC(C)(F)F)ccc12` [Example 43, 7-(1,1-difluoroethoxy)-1-methyl-9H-pyrido[3,4-b]indole], which “Sclerostin Inhibition Assay; improvement over sclerostin alone.” value (sclerostin) is on record?
Answer: ++ (++ indicates an IC100 < 10 μM)

Question: What about the IC100 (MC3T3 osteoblast cells; [2]) of the same molecule?
Answer: < 10 µM

Question: What about the IC100 [1, 3] of the same molecule?
Answer: < 10 µM

Question: What does the source list for `CC1CN(CCn2c3cc(O)ccc3c3ccnc(C(F)(F)F)c32)CC(C)O1` (stereo not drawn) [Example 31, 9-(2-(2,6-dimethylmorpholino)ethyl)-1-(trifluoromethyl)-9H-pyrido[3,4-b]indol-7-ol]?
Answer: Sclerostin Inhibition Assay; improvement over sclerostin alone. (sclerostin): ++ (++ indicates an IC100 < 10 μM); IC100 (MC3T3 osteoblast cells; [2]): < 10 µM; IC100 [1, 3]: < 10 µM

Question: What does the source list for `Cc1nccc2c1[nH]c1cc(OC3CC3)ccc12` [Example 42, 7-cyclopropoxy-1-methyl-9H-pyrido[3,4-b]indole]?
Answer: Sclerostin Inhibition Assay; improvement over sclerostin alone. (sclerostin): + (+ indicates an IC100 > 10 μM); IC100 (MC3T3 osteoblast cells; [2]): > 10 µM; IC100 [1, 3]: > 10 µM

Question: `COc1ccc2c3ccnc(C(F)(F)F)c3n(CCN3CCOCC3C)c2c1` (stereo not drawn) [Example 29, 4-(2-(7-methoxy-1-(trifluoromethyl)-9H-pyrido[3,4-b]indol-9-yl)ethyl)-3-methylmorpholine] was tested. Which “Sclerostin Inhibition Assay; improvement over sclerostin alone.” value (sclerostin) did it give?
Answer: ++ (++ indicates an IC100 < 10 μM)

Question: And the IC100 (MC3T3 osteoblast cells; [2])?
Answer: < 10 µM

Question: What about the IC100 [1, 3] of the same molecule?
Answer: < 10 µM

Question: Which results are given for `COc1ccc2c3ccnc(C(F)(F)F)c3n(CCN3CCCCC3)c2c1` [Example 33, 7-methoxy-9-(2-(piperidin-1-yl)ethyl)-1-(trifluoromethyl)-9H-pyrido[3,4-b]indole]?
Answer: Sclerostin Inhibition Assay; improvement over sclerostin alone. (sclerostin): ++ (++ indicates an IC100 < 10 μM); IC100 (MC3T3 osteoblast cells; [2]): < 10 µM; IC100 [1, 3]: < 10 µM

Question: For “sclerostin protein: SOST (Sclerostin) protein; antagonizes Wnt3a signaling and inhibits mineralization and OCN secretion in the assays”, which “Sclerostin Inhibition Assay; improvement over sclerostin alone.” value (sclerostin) is on record?
Answer: −

Question: What about the “effect on Wnt3a signaling” value (sclerostin; human embryonic cells, result in words) of the same molecule?
Answer: antagonized Wnt3a signaling

Question: And the “OSTEOCALCIN (Bone Formation Marker)” value (MC3T3 osteoblast cells; [2])?
Answer: −

Question: And the “effect on OCN secretion” value (MC3T3 osteoblast cells; [4])?
Answer: nearly complete loss of OCN secretion

Question: And the “Sclerostin Inhibition of Mineralization; improvement over sclerostin alone.” value [1, 3]?
Answer: −

Question: What about the effect on mineralization [1, 4] of the same molecule?
Answer: significant decrease in mineralization

Question: Which results are given for `COc1ccc2c(c1)[nH]c1c(C)nc(O)cc12` [Example 19, 7-methoxy-1-methyl-9H-pyrido[3,4-b]indol-3-ol]?
Answer: Sclerostin Inhibition Assay; improvement over sclerostin alone. (sclerostin): ++ (++ indicates an IC100 < 10 μM); IC100 (MC3T3 osteoblast cells; [2]): < 10 µM; IC100 [1, 3]: < 10 µM

Question: How did the “Sclerostin Inhibition Assay; improvement over sclerostin alone.” value (sclerostin) turn out when `Oc1ccc2c3ccnc(C(F)(F)F)c3n(CCN3CCOCC3)c2c1` [Example 26, 9-(2-morpholinoethyl)-1-(trifluoromethyl)-9H-pyrido[3,4-b]indol-7-ol] was run?
Answer: ++ (++ indicates an IC100 < 10 μM)

Question: And the IC100 (MC3T3 osteoblast cells; [2])?
Answer: < 10 µM

Question: What about the IC100 [1, 3] of the same molecule?
Answer: < 10 µM

Question: For `OCCN(CCO)CCn1c2cc(O)ccc2c2ccnc(C(F)(F)F)c21` [Example 36, 2,2′-((2-(7-hydroxy-1-(trifluoromethyl)-9H-pyrido[3,4-b]indol-9-yl)ethyl)azanediyl)diethanol], which “Sclerostin Inhibition Assay; improvement over sclerostin alone.” value (sclerostin) is on record?
Answer: + (+ indicates an IC100 > 10 μM)

Question: And the IC100 (MC3T3 osteoblast cells; [2])?
Answer: > 10 µM

Question: And the IC100 [1, 3]?
Answer: > 10 µM
